Test results: ChEMBL document CHEMBL1201862, “PubChem BioAssay data set” (2004)
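96-well plates; 48 h exposure; 5 concentrations. Endpoints by linear interpolation between flanking doses. Not reached: highest tested concentration assigned. At the GI50, growth is halved.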 Active and inactive are the calls of the source. Rule as the data show it: active = GI50 up to about 1.1 µM and inactive = higher.

Legend:
Assay in all cases: inhibition of tumour cell growth, NCI panel, 48 h
[1] = system: HT-29
[2] = system: 786-0
[3] = system: HCT-116
[4] = system: UO-31
[5] = system: BT-549
[6] = system: U-251
[7] = system: PC-3
[8] = system: SF-268
[9] = system: NCI-H460
[10] = system: TK-10
[11] = system: RXF 393
[12] = system: SN12C
[13] = system: LOX IMVI
[14] = system: OVCAR-5
[15] = system: HCC 2998
[16] = system: SK-OV-3
[17] = system: HOP-92
[18] = system: SR

Measured: GI50

NNC(=O)c1ccc[n+](CCc2ccccc2)c1
inactive: [1] > 100 µM | [2] > 100 µM | [3] > 100 µM | [4] > 100 µM | [5] > 100 µM | [6] > 100 µM | [7] > 100 µM | [8] > 100 µM | [9] > 100 µM | [10] > 100 µM | [11] > 100 µM | [12] > 100 µM | [13] > 100 µM | [14] > 100 µM | [15] > 100 µM | [16] > 100 µM | [17] > 100 µM

SC[C@@H]1COC[C@H](CS)S1
inactive: [1] > 100 µM | [2] > 100 µM | [3] > 100 µM | [4] > 100 µM | [5] > 100 µM | [6] > 100 µM | [7] > 100 µM | [8] > 100 µM | [9] > 100 µM | [10] > 100 µM | [12] > 100 µM | [13] > 100 µM | [18] > 100 µM | [14] > 100 µM | [15] > 100 µM | [16] > 100 µM

O=C1/C(=C\c2ccc(Cl)cc2)N=C(c2ccccc2)N1n1c(=O)cn[nH]c1=S
inactive: [1] 37.7 µM | [2] 18.4 µM | [3] 68.2 µM | [4] 60.4 µM | [5] 28.5 µM | [6] 19.8 µM | [7] 39.7 µM | [9] > 100 µM | [13] 27.8 µM | [18] 22.5 µM | [14] > 100 µM | [15] 84.3 µM | [16] > 100 µM

N#Cc1c2ccc([N+](=O)[O-])cc2c(=O)n2c1sc1ccccc12
inactive: [1] 33.7 µM | [2] 24.2 µM | [3] 11.1 µM | [4] 22.6 µM | [5] 19.9 µM | [6] 14.6 µM | [7] 14.8 µM | [8] 56.2 µM | [9] 27.5 µM | [10] 16 µM | [12] 24.3 µM | [13] 25.2 µM | [18] 3.94 µM | [15] 8.05 µM | [17] 13.5 µM

O=C(c1cc(Cl)cc(Cl)c1)N(C(=O)N1CCN(c2ccccc2)CC1)c1ccccc1
inactive: [1] 25.6 µM | [2] 43.1 µM | [3] 24.3 µM | [4] 18.7 µM | [5] 48.1 µM | [6] 39.7 µM | [7] 25.1 µM | [8] 43.1 µM | [9] 29.7 µM | [10] 54.6 µM | [11] 37 µM | [12] 55.6 µM | [13] 36.5 µM | [14] 22.3 µM | [15] 51.9 µM | [16] 96.6 µM | [17] 34.5 µM

O=C(Sc1c(-c2ccccc2)c(=O)n(-c2ccccc2)c(=S)n1-c1ccccc1)c1ccccc1
inactive: [1] 57.9 µM | [2] > 100 µM | [3] 56 µM | [4] 41.6 µM | [5] 56.1 µM | [6] 79.1 µM | [7] > 100 µM | [8] > 100 µM | [9] > 100 µM | [10] > 100 µM | [12] > 100 µM | [13] 26.4 µM | [18] 31.3 µM | [14] > 100 µM | [16] > 100 µM | [17] 32.1 µM

COC(=O)c1ccccc1C1CN=NC12Cc1ccc3c(c1C2=O)CCC3 (configuration not stated)
inactive: [1] 82 µM | [2] 43.4 µM | [3] 39.3 µM | [4] 68.5 µM | [5] > 100 µM | [6] 49.1 µM | [7] 49.3 µM | [8] 27.6 µM | [9] 70 µM | [10] > 100 µM | [11] 67.9 µM | [12] > 100 µM | [13] 9.04 µM | [14] > 100 µM | [15] > 100 µM | [16] 49.4 µM | [17] 23.1 µM

COc1ccc2c(c1)CCC/C2=N\NS(=O)(=O)c1c(C)cc(C)cc1C
inactive: [1] 20.7 µM | [2] 19.1 µM | [3] 18.3 µM | [4] 28.9 µM | [5] 28.9 µM | [6] 31.6 µM | [7] 28.6 µM | [9] 31 µM | [10] 51.4 µM | [12] 21.8 µM | [13] 19.4 µM | [18] 20.2 µM | [14] 39.6 µM | [15] 41.5 µM | [17] 20.3 µM

C=C1CC[C@H]2C(=O)OC(c3ccoc3)C[C@]2(C)C/C=C\C=C/1C(=O)OC (some centres not stated)
inactive: [1] > 25 µM | [2] > 25 µM | [3] > 25 µM | [4] 13.6 µM | [5] > 25 µM | [6] > 25 µM | [7] > 25 µM | [9] > 25 µM | [10] > 25 µM | [11] > 25 µM | [12] > 25 µM | [13] > 25 µM | [14] > 25 µM | [15] > 25 µM | [16] > 25 µM | [17] > 25 µM
